Assay results published in patent US20250129054A1 (Terran Biosciences Inc., priority 2022, published 2025).

Legend:
[1] = Serial tail vein bleed PK study in SD rats: methylone measured in plasma after IV or oral methylone or oral methylone prodrugs; format: in vivo, Sprague Dawley rats; conditions: 10 mg/kg, rat
Description: A pharmacokinetic (PK) study was performed in three male Sprague-Dawley (SD) rats following intravenous (IV) and oral (PO) administration of methylone at 1 mg/kg (IV) and 10 mg/kg (PO) respectively, or test compounds (prodrugs of methylone) at 10 mg/kg (PO). Parent compound (methylone) was measured in plasma.
Samples were sent for method optimization and measurement of parent compound (methylone) via unique calibration lines and following acceptance QC's. Dose formulation concentrations were also measured, and PK parameters were determined (Cmax (ng/mL), Tmax (hr), Cl (ml/min/kg), Vdss (L/kg), t½(hr), AUC0-t (ng/mL*hr), AUC0-inf (ng/mL*hr), MIRT (hr), Bioavailability ([…]) where warranted) using WinNon Lin software. Data (including bioanalytical results and assay performance) were reported in a tabulated format.
Formulation for PO Administration: For PO dosing, the prodrug was formulated in 10% DMSO/20% PEG400/70% water to a concentration of 2 mg free metabolite material/mL. This provided a dose of 10 mg free metabolite/kg when the prodrug was administered PO in 5 mL/kg dosing volumes.
Formulation for IV administration: For IV dosing, rac-methylone was formulated as solution in saline to a concentration of 0.5 mg free metabolite material/mL. This provided a dose of 1 mg free metabolite/kg when administered IV in 2 mL/kg dosing volumes.
The pharmacokinetic properties of the synthesized methylone prodrugs after oral administration in a rat model were assessed. The concentration of methylone was measured in each rat at various sampling timepoints after IV or oral administration of rac-methylone or the synthesized methylone prodrugs to rats.
Dose formulations were made at equivalent concentrations of active compound (methylone) adjusted for molecular weight of the compounds. The synthesized methylone prodrugs or analogs were dosed at 10 mg/kg oral (PO) nominal dose. Nominal doses were used in PK parameter determinations. The parent compound (methylone) was dosed at 1 mg/kg intravenous (IV) and 10 mg/kg (PO).

[2] = test system: rat elevated zero maze model of anxiety; test: Rat elevated zero maze model of anxiety (% time on open areas, stretched attend postures); format: in vivo, Sprague-Dawley rats; conditions: for anxiogenic effect: across the doses tested, ip
Source text: The rat zero-maze model is a refined alternative to the plus-maze, the most widely used animal model of anxiety, and consists of an elevated annular platform, divided equally into four quadrants. Two opposite quadrants are enclosed by Perspex walls on both the inner and the outer edges of the platform, while the remaining two opposite quadrants are open being enclosed only by a Perspex “lip”. Animals will show a preference for the closed areas, and avoidance of the open sections is assumed to stem from a rodent's natural aversion to open, exposed spaces. The primary index of anxiety, which reflect changes in open arm preference, is the percentage of time spent on the open areas. A reduction in the amount of activity on the open areas is considered to reflect an increase in anxiety. Other, ethologically-based behaviours are also assessed as indices of anxiety. One of the most important is stretched attend postures (SAP) from closed to open quadrants. […] Shepherd, J K; et al., (1994) Behavioural and pharmacological validation of the elevated “zero-maze” as an animal model of anxiety. Psychopharmacol., 116:56-64.
Male Sprague-Dawley 200-250 g (Envigo UK) rats were used. Animals were group-housed (5 per cage; cage size: 40×40×20 cm) in a temperature-controlled environment (22±2° C.), under a 12 h light-dark cycle (lights on: 08:00 hours) for one week prior to testing. Food and water were freely available. Number of animals per group=5. Animals were moved into the experimental room 16-24 hours before testing.
The elevated 0-maze comprises a black Perspex annular platform (105 cm diameter, 10 cm width) elevated to 65 cm above ground level, divided equally into four quadrants. Two opposite quadrants are enclosed by clear red Perspex walls (27 cm high) on both the inner and outer edges of the platform, while the remaining two opposite quadrants are surrounded only by a Perspex “lip” (1 cm high) which serves as a tactile guide to animals on these open areas.
Subjects were weighed and tail marked before being injected. After a specified pre-treatment time, subjects were placed in a closed quadrant and a 5-min test period were recorded on videotape for subsequent analysis. The maze were cleaned with 5% methanol/water solution and dried thoroughly between test sessions. Behavioural measures comprise percentage time spent on the open areas (% TO) and frequency of stretched attend postures (SAP) from closed to open quadrants. Since the control groups were all treated identically with the same vehicle these were combined to increase power. The Chlordiazepoxide groups were also treated identically with the same dose so these were also combined to increase power. Animals are scored as being in the open area when all four paws were in an open quadrant and in the closed area only when all four paws have passed over the open-closed divide. All testing were carried out between 9.00 and 16.00 hours.
For each study, a 1-way ANOVA was conducted across vehicle, CDP, and drug treatment groups. Each group was compared to the vehicle group and a p-value for treatment determined by Fishers Least Significant Difference (LSD) test. This analysis was performed in GraphPad Prism (Version 9).
Intraperitoneal (IP): Racemic methylone HCl was formulated in Vehicle 1 (Saline) for injection to concentrations of 1, 3 and 6 mg/mL to provide doses of 5, 15 and 30 mg/kg when administered ip in 5 mL/kg dosing volumes.
Intraperitoneal (IP): S-methylone HCl was formulated in Vehicle 1 (Saline) for injection to concentrations of 0.5, 1, 1.5, 3 and 6 mg/mL to provide doses of 2.5, 5, 7.5, 15 and 30 mg/kg when administered ip in 5 mL/kg dosing volumes.
Intraperitoneal (IP): R-methylone HCl was formulated in Vehicle 1 (Saline) for injection to concentrations of 1, 3 and 6 mg/mL to provide doses of 5, 15 and 30 mg/kg when administered ip in 5 mL/kg dosing volumes. […]

[3] = test system: post-traumatic stress disorder (PTSD); test: Double-blind, randomized, placebo-controlled clinical trial of methylone-assisted psychotherapy in PTSD; format: in vivo, human; conditions: at Study Conclusion; for clinician-rated functional impairment score as measured by SDS / depression as measured by HAM-D: compared to placebo-treated controls; for change in CAPS-5 assessment: with psychotherapy, compared to the placebo group, PTSD participants
Description: A multicenter, randomized, double-blind, placebo-controlled trial is conducted to assess the efficacy and safety of methylone-assisted psychotherapy versus psychotherapy with placebo control in participants diagnosed with at least moderate post-traumatic stress disorder (PTSD).
This multicenter, randomized, double-blind, placebo-controlled trial is conducted at various sites in the United States with IRB approval from each study site. A flexible dose of methylone hydrochloride salt or placebo, followed by a supplemental half-dose unless contraindicated by patient's previous response or medical history, is also administered during the Treatment Period with psychotherapy in at least 3 blinded monthly Experimental Sessions. The Supplemental Dose extends the duration of drug effects on the participants during an Experimental Session. Methylone test groups are further subdivided into specific groups receiving only racemic methylone hydrochloride salt, S-methylone hydrochloride salt, or R-methylone hydrochloride salt. An optional Risk Evaluation and Mitigation Strategy (REMS) Protocol may be implemented for the racemic methylone, S-methylone, and placebo-groups. The Treatment Period lasts for approximately 12 weeks. During the Treatment Period, each Experimental Session is followed by three Intervening Sessions of non-drug psychotherapy. Each Experimental Session involves an overnight stay. The Primary Outcome measure, the change in Clinician Administered PTSD Scale for DSM-5 (CAPS-5), is determined by a blinded Independent Rater (IR) pool multiple times throughout the study. The study consists of separate periods for each participant. Initially, prospective participants undergo a Screening Period involving an initial eligibility assessment, a medical history intake, informed consent, and enrollment of eligible participants. Next, a Preparation Period is undertaken for enrolled participants involving medication tapering and clinical baseline assessments to confirm each participant meets enrollment criteria. As part of the Preparation Period, a detailed assessment of co-morbidities to PTSD is recorded. Participants may remain on prescribed courses of selective serotonin reuptake inhibitor (SSRI) or serotonin and norepinephrine reuptake inhibitor (SNRI) treatment. Dosages and/or frequency of administration of a prescribed SSRI or SNRI may be adjusted to fit within study parameters. Participants may be required to taper a prescribed course of medication in order to maintain eligibility within the study. The Treatment Period consists of three monthly Experimental Sessions and associated Intervening Sessions of integrative behavioral psychotherapy. The Treatment Period lasts approximately 12 weeks. Following the Treatment Period is a Follow-up Period and Study Conclusion. During the Follow-up Period and Study Conclusion, participants complete 4 weeks with no study visits, followed by a Study Conclusion visit.
This study compares the effects of three blinded Experimental Sessions of psychotherapy in combination with flexible doses of methylone or placebo administered as described below. Non-drug preparatory and intervening psychotherapy sessions are also included. Patient's weight is determined for dosage calculation. Initial dose is 100 mg unless this will result in a dosage of less than 1.5 mg/kg of patient weight. Initial dose thereby adjusted upward in 25 mg increments to deliver the lowest dose possible of at least 1.5 mg/kg of patient weight. Initial dose for Experimental Session 2 and 3 is cumulative dose calculated by adding the initial dose plus REMS protocol dose used the previous Experimental Session for each patient.
Randomization occurs prior to the initiation of Experimental Session 1. Each participant is provided the next randomized number in a sequence by a blinded study monitor. […]

[4] = 30 mg/kg ip, 30 min pretreatment, vs vehicle and chlordiazepoxide 6 mg/kg, male SD rats
[5] = dose response over 5, 15 and 30 mg/kg ip, male SD rats
[6] = specific (sufficient) doses ip, compared with chlordiazepoxide 6 mg/kg

Row | SMILES | frequency of SAPs [2, 4] | time spent in the open arms [2, 4] | anxiogenic effect ([2]; male SD rats) | frequency of SAPs [2, 6] | time in the open arms [2, 6] | daytime sleepiness as measured by ESS [3] | clinician-rated functional impairment score as measured by SDS [3] | depression as measured by HAM-D [3] | change in CAPS-5 assessment [3] | further results
1 | CC(C(=O)c1ccc2c(c1)OCO2)N(C)C(=O)C(C)(C)C (centres unmarked) [PG, N-[2-(1,3-Benzodioxol-5-yl)-1-methyl-2-oxo-ethyl]-N-2,2-trimethyl-propanamide] | – | – | – | – | – | – | – | – | – | Plasma Concentrations of metabolite methylone ([1]; 0.500 h after oral dosing of the prodrug, individual animals): BLQ (Below Lower Limit of Quantification (0.5 ng/mL)); Plasma Concentrations of metabolite methylone ([1]; 0.500 h after oral dosing of the prodrug, mean): BLQ (Below Lower Limit of Quantification (0.5 ng/mL)); Plasma Concentrations of metabolite methylone ([1]; 1.00 h after oral dosing of the prodrug, individual animals): BLQ (Below Lower Limit of Quantification (0.5 ng/mL)); Plasma Concentrations of metabolite methylone ([1]; 1.00 h after oral dosing of the prodrug, mean): BLQ (Below Lower Limit of Quantification (0.5 ng/mL)); Plasma Concentrations of metabolite methylone ([1]; 2.00 h after oral dosing of the prodrug, individual animals): BLQ (Below Lower Limit of Quantification (0.5 ng/mL)); Plasma Concentrations of metabolite methylone ([1]; 2.00 h after oral dosing of the prodrug, mean): BLQ (Below Lower Limit of Quantification (0.5 ng/mL)); Plasma Concentrations of metabolite methylone ([1]; 4.00 h after oral dosing of the prodrug, individual animals): BLQ (Below Lower Limit of Quantification (0.5 ng/mL)); Plasma Concentrations of metabolite methylone ([1]; 4.00 h after oral dosing of the prodrug, mean): BLQ (Below Lower Limit of Quantification (0.5 ng/mL)); Plasma Concentrations of metabolite methylone ([1]; 7.00 h after oral dosing of the prodrug, individual animals): BLQ (Below Lower Limit of Quantification (0.5 ng/mL)); Plasma Concentrations of metabolite methylone ([1]; 7.00 h after oral dosing of the prodrug, mean): BLQ (Below Lower Limit of Quantification (0.5 ng/mL)); Plasma Concentrations of metabolite methylone ([1]; 24.0 h after oral dosing of the prodrug, individual animals): BLQ (Below Lower Limit of Quantification (0.5 ng/mL)); Plasma Concentrations of metabolite methylone ([1]; 24.0 h after oral dosing of the prodrug, mean): BLQ (Below Lower Limit of Quantification (0.5 ng/mL))
2 | CN[C@H](C)C(=O)c1ccc2c(c1)OCO2 [R-methylone] | significantly decreasing SAPs to the same level as chlordiazepoxide | as effective as chlordiazepoxide | did not show any anxiogenic effect at any dose | decreased the frequency of SAPs as effectively as the benzodiazepine chlordiazepoxide | increase time in the open arms | significant improvement in lessening daytime sleepiness | significant improvement | significant improvement | significant mean reduction | frequency of SAPs [2, 5]: dose dependent decrease in SAPs; time spent in the open arms [2, 5]: dose dependent increase in time spent in the open arms
3 | CN[C@@H](C)C(=O)c1ccc2c(c1)OCO2 [S-methylone] | even more effective than chlordiazepoxide at reducing SAPs | the time in the open arms increased | show anxiogenic effects at lower doses | decreased the frequency of SAPs as effectively as the benzodiazepine chlordiazepoxide | increase time in the open arms | significant improvement in lessening daytime sleepiness | significant improvement | significant improvement | significant mean reduction | frequency of SAPs ([2]; 2.5 mg/kg and 5 mg/kg ip, male SD rats): dose dependent increase in SAPs; frequency of SAPs ([2]; 7.5 mg/kg, 15 mg/kg and 30 mg/kg ip, male SD rats): dose dependent decrease in SAPS; time spent in the open arms ([2]; trend over 5 mg/kg, 7.5 mg/kg and 15 mg/kg ip, male SD rats): the time spent in the open arms decreased as the dose increased
